Source: the NIST ThermoML archive (doi:10.1016/j.fluid.2010.01.027)

Details: for mass density: Vibrating tube method

FC(F)(F)C(F)(F)C(F)(F)C(F)(F)C(F)(F)C(F)(F)C(F)(F)F [hexadecafluoroheptane]
101.33 kPa, Liquid
Details	mass density [kg/m3]
278.15 K	1769.3
288.15 K	1751
298.15 K	1728.4
308.15 K	1700.8
318.15 K	1672.7
328.15 K	1641.9
333.15 K	1629.4

101.33 kPa, Liquid, sound analyzer
Details	speed of sound [m/s]
278.15 K	608.3
288.15 K	578.42
298.15 K	548.73
308.15 K	517.47
318.15 K	500.56
328.15 K	470.6
333.15 K	457.24

FC(F)(F)C(F)(F)C(F)(F)C(F)(F)F [decafluorobutane]
speed of sound [m/s], Gas, sonar gas analyzer
Details	10 kPa	20 kPa	30 kPa	50 kPa	70 kPa	100 kPa	150 kPa	200 kPa	250 kPa	300 kPa
248.7 K	95.1	94.56	93.98	–	–	–	–	–	–	–
257.7 K	96.57	96.22	95.7	94.78	–	–	–	–	–	–
271.3 K	99.26	98.71	98.33	97.39	96.39	94.79	–	–	–	–
281.5 K	101.05	100.64	100.23	99.38	98.4	97.04	95.08	–	–	–
293.1 K	103.02	102.7	102.37	101.71	100.86	99.66	97.68	95.63	–	–
303.1 K	104.78	104.57	104.25	103.35	103.06	103.05	99.91	98.41	96.5	94.89

FC(F)(F)C(F)(F)C(F)(F)F [octafluoropropane]
speed of sound [m/s], Gas, sonar gas analyzer
Details	248.2 K	259.8 K	270.2 K	272.6 K	283.2 K	296.1 K	303.9 K
10 kPa	107.9	–	112.31	–	–	–	119.13
20 kPa	107.6	110	111.99	–	114.63	–	118.98
30 kPa	107.25	109.59	111.77	–	114.12	–	118.79
50 kPa	106.56	108.88	111.27	–	113.84	116.81	118.42
70 kPa	105.77	108.23	110.9	–	113.1	116.31	118.04
100 kPa	104.62	107.27	–	110.29	112.46	115.55	117.43
150 kPa	102.76	105.51	–	108.59	111.28	114.42	116.26
200 kPa	–	103.72	–	106.9	109.88	113.23	115.36
250 kPa	–	101.83	–	105.22	108.56	111.94	114.31
300 kPa	–	–	–	103.59	107.1	110.7	113.14
350 kPa	–	–	–	101.9	105.61	109.43	112
400 kPa	–	–	–	100.27	103.99	108.12	110.63

FC(F)(F)C(F)(F)C(F)(F)C(F)(F)C(F)(F)C(F)(F)C(F)(F)C(F)(F)F [octadecafluorooctane]
101.33 kPa, Liquid
Details	mass density [kg/m3]
278.15 K	1810
288.15 K	1786.7
298.15 K	1760.6
308.15 K	1735
318.15 K	1708.6
328.15 K	1681.6
338.15 K	1656.4

101.33 kPa, Liquid, sound analyzer
Details	speed of sound [m/s]
278.15 K	640.32
288.15 K	610.05
298.15 K	581.94
308.15 K	552.33
318.15 K	524.1
328.15 K	508.43
338.15 K	479.24

FC(F)(F)C(F)(F)C(F)(F)C(F)(F)C(F)(F)C(F)(F)F [perfluorohexane]
101.33 kPa, Liquid
Details	mass density [kg/m3]
278.15 K	1739.8
288.15 K	1712.7
298.15 K	1682.8
308.15 K	1651.9

101.33 kPa, Liquid, sound analyzer
Details	speed of sound [m/s]
278.15 K	571.89
288.15 K	540.31
298.15 K	510.7
